# Source: patent publication US20080108645A1, “Dihydrotetrabenazines And Pharmaceutical Compositions Containing Them” (CAMBRIDGE LABORATORIES, (IRELAND), LTD., priority 2004, published 2008)
# Test system: Catechol O-Methyl Transferase (COMT)
# Assay: Catechol O-Methyl Transferase (COMT) inhibition
# Assay type: biochemical, Porcine
# Conditions: for Percentage Inhibition of Enzyme Activity, COMT: 10 μM
# Experimental: Isomers B and C were tested for their ability to inhibit enzymes involved in the processing of monoamines in the CNS, namely Catechol O-Methyl Transferase (COMT), Monoamine Oxidase A and Monoamine Oxidase B. The assay methods used are described below and the results are set out in Table 7.
# (a) Catechol O-Methyl Transferase (COMT) Inhibition • Source: Porcine liver • Substrate: 3 mM catechol+S-adenosyl-L-[^3H]methionine • Vehicle: 1% DMSO • Pre-incubation time/Temp: None • Incubation time: 60 minutes @ 37° C. • Incubation buffer: 100 mM potassium phosphate, 10 mM MgCl2, 3 mM DTT containing 12 units/ml adenosine deaminase, pH 7.4 • Quantitation method: Quantitation of [^3H] guiacol. • Significance criteria: ≧50% of maximum stimulation or inhibition (b) Monoamine Oxidase MAO-A Inhibition • Source: Human recombinant • Substrate: 50 μM kynuramine • Vehicle: 1% DMSO • Pre-incubation time/Temp: 15 minutes @ 37° C. • Incubation time: 60 minutes @ 37° C. • Incubation buffer: 100 mM KH2PO4, pH 7.4 • Quantitation method: Spectrofluorimetric quantitation of 4-hydroxyquinoline • Significance criteria: ≧50% of maximum stimulation or inhibition (c) Monoamine Oxidase MAO-B Inhibition • Source: Human recombinant • Substrate: 50 μM kynuramine • Vehicle: 1% DMSO • Pre-incubation time/Temp: 15 minutes @ 37° C. • Incubation time: 60 minutes @ 37° C. • Incubation buffer: 100 mM KH2PO4, pH 7.4 • Quantitation method: Spectrofluorimetric quantitation of 4-hydroxyquinoline • Significance criteria: ≧50% of maximum stimulation or inhibition
Compound,inhibitory activity against COMT (in words),"Percentage Inhibition of Enzyme Activity, COMT [%]"
"COc1cc2c(cc1OC)[C@H]1C[C@H](O)[C@@H](CC(C)C)CN1CC2 (single isomer, unassigned) [Isomer B, 3,11b-cis-dihydrotetrabenazine]",no inhibitory activity,−12
"COc1cc2c(cc1OC)[C@H]1C[C@@H](O)[C@@H](CC(C)C)CN1CC2 (single isomer, unassigned) [Isomer C, 3,11b-cis-dihydrotetrabenazine]",no inhibitory activity,−22
